Measurements reported in patent US20090076142A1, “USE OF THE IRRITATING PRINCIPAL OLEOCANTHAL IN OLIVE OIL, AS WELL AS STRUCTURALLY AND FUNCTIONALLY SIMILAR COMPOUNDS” (The Trustees of the University of Pennsylvania, priority 2005, published 2009).

Columns and labels:
[1] = target: T1, ovine COX-1 (Ovis aries, UniProt P05979); test: Cyclooxygenase COX-1 inhibition assay (Cayman Chemicals kit); type: biochemical; conditions: for inhibition at 7 µM / inhibition at 25 µM / inhibition at 100 µM: mean ± SEM, three independent experiments, read-out: Percent inhibition of COX-1; for IC50: least squares regression analysis of inhibition vs. concentration, read-out: calculated IC50 for COX-1
T1 construct: purchased Cayman Chemicals
T1 sequence (P05979 25-600): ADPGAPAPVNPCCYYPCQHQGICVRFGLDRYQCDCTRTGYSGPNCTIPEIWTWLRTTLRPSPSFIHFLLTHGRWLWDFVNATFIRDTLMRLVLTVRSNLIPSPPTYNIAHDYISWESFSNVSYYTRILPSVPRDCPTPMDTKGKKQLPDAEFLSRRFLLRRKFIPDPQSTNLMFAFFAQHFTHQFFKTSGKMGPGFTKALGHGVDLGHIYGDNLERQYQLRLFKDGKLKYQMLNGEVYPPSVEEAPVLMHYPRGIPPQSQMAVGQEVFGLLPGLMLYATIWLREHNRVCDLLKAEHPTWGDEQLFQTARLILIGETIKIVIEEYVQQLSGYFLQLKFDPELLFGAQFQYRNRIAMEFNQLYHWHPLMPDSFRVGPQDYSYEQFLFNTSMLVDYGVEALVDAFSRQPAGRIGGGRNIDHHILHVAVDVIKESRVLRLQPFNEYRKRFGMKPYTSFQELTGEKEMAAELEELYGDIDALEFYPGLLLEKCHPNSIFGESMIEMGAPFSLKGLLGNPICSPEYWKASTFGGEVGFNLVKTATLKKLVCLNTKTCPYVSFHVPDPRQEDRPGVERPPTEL

[2] = target: T2, soybean 15-lipoxygenase (Glycine max, UniProt P08170); test: 15-lipoxygenase inhibition assay (Cayman Chemicals kit); type: biochemical; conditions: mean ± SEM, three independent experiments, read-out: Percent inhibition of 15-LO
T2 construct: purchased Cayman Chemicals
T2 sequence (P08170 1-839): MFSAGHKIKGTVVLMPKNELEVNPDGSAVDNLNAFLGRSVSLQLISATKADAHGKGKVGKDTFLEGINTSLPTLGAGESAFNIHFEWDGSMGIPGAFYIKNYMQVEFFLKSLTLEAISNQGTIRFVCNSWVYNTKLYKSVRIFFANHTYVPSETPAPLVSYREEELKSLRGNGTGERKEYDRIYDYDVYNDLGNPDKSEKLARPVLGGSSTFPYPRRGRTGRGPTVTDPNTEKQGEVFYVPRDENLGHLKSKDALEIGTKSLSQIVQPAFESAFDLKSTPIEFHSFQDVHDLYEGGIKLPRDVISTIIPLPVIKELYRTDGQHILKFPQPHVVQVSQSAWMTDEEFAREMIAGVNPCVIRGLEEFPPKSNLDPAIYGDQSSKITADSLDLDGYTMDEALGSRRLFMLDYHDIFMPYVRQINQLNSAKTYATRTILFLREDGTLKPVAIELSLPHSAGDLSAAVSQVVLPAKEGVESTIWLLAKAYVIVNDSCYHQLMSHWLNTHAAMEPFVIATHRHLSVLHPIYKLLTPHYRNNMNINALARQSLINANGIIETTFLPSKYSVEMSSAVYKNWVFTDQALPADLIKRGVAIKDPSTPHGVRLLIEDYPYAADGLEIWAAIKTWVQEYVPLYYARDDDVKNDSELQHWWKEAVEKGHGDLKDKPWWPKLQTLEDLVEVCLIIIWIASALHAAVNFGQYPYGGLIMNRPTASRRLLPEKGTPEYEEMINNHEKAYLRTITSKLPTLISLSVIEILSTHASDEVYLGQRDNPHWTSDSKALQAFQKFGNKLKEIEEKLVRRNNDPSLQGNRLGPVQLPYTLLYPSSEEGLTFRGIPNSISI

[3] = target: T3, human recombinant COX-2 (Homo sapiens, UniProt P35354); test: Cyclooxygenase COX-2 inhibition assay (Cayman Chemicals kit); type: biochemical; conditions: for inhibition at 7 µM / inhibition at 25 µM / inhibition at 100 µM: mean ± SEM, three independent experiments, read-out: Percent inhibition of COX-2; for IC50: least squares regression analysis of inhibition vs. concentration, read-out: calculated IC50 for COX-2
T3 construct: purchased Cayman Chemicals
T3 sequence (P35354 18-604): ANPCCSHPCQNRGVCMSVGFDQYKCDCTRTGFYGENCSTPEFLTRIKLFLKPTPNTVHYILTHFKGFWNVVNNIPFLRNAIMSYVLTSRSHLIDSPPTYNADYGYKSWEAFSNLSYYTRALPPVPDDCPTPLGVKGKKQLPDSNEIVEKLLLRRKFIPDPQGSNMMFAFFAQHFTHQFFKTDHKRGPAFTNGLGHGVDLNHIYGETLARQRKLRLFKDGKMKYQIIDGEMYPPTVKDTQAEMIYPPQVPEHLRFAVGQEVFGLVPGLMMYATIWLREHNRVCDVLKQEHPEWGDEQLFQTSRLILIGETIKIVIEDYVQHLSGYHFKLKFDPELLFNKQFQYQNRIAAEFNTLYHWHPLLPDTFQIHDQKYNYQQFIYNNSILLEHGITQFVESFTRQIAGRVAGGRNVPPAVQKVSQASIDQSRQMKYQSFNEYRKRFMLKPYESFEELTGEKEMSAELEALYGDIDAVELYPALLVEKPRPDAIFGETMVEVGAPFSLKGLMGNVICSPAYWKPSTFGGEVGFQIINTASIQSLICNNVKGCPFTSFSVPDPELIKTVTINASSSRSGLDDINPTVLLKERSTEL

[4] = system: throat irritation; test: Throat irritation sensory test, two-alternative forced-choice, compound in corn oil; type: in vivo, human
Description: Testing was double-blind and each was exposed to three sets of two samples, one of which was added synthesized oleocanthal and the other served as the blank control. The task was to indicated which of the pair was more irritating. […] Importantly, the effect was dose dependent (FIG. 2 open triangles, dashed line). Ten subjects were tested with non-irritating commercial corn oils presented neat and mixed with either synthesized (−)-oleocanthal or the bitter agent sucrose octaacetate (SOA) (Sigma-Aldrich). […] (−)-Oleocanthal was tested at the highest concentration identified in the ten rated oils, 200 μg/ml, and at one half and whole log steps more dilute 63.25 and 20 μg/ml. SOA was added to the corn oil (4×10^−4, 1×10^−4, 5×10^−5 M) to intensity match the irritation of the three levels of (−)-oleocanthal. Subjects participated in two-alternative forced-choice (2AFC) trials (four trials at every concentration for each subject) and in intensity ratings sessions (four ratings per each oil). For the 2AFC trials subjects were presented with two 3.0 ml corn oil samples with matching intensities of SOA and (−)-oleocanthal in ascending order, and were required to sample oils as described above. While blind to stimulus position, subjects were asked two questions on each trial, “Which of the two oils was more irritating in the throat?” and “Which one was more bitter?” At the 20 μg/ml & 5×10^−5 M level most subjects reported on some trials that the same oil was both the more irritating and the more bitter of the two. […] Subjects performed at chance when selecting among two unadulterated corn oils, when the correct choice was randomly assigned prior to testing. […] The other two concentrations were correct 39/40 and 40/40 trials. For the intensity rating trials subjects were presented with all eight oils in ascending order, counterbalanced for stimulus order and asked to rate the throat irritation and bitterness of every oil on a general labeled magnitude scale.

Row | Compound | inhibition at 7 µM [1] | inhibition at 25 µM [1] | inhibition at 100 µM [1] | IC50 [1] | inhibition at 7 µM [2] | inhibition at 25 µM [2] | inhibition at 100 µM [2] | inhibition at 7 µM [3] | inhibition at 25 µM [3] | inhibition at 100 µM [3] | IC50 [3] | correct 2AFC trials (more irritating in the throat) ([4]; 20 μg/ml in corn oil vs SOA, ten subjects) | detection threshold level of throat irritation in corn oil ([4]; corn oil, ten subjects) | throat irritation compared with oleocanthal isolated from premium olive oil ([4]; synthetic compound in corn oil) | correct identification of the more irritating sample (2AFC) ([4]; three evaluators, three presentations, corn oil, approximately twice the concentration found in Falconaro olive oil, p<0.01)
1 | CC=C(C=O)C(CC=O)CC(=O)OCCc1ccc(O)cc1 (single isomer, unassigned) [Oleocanthal (+)] | 24.6 ± 7.5% | 54.5 ± 4.6% | 68 ± 15.2% | 27.9 µM | 0% | 0.7 ± 1% | 3.5 ± 5.5% | 6.1 ± 4.2% | 41.3 ± 15.9% | 69.6 ± 3.9% | 40.5 µM |  |  |  | 
2 | O=C(O)/C=C/c1ccc(O)c(O)c1 [Caffeic Acid, caffeic acid, reference compound] |  |  |  |  | 19.8 ± 1.3% | 25.2 ± 2.2% |  |  |  |  |  |  |  |  | 
3 | COc1ccc2c(c1)c(CC(=O)O)c(C)n2C(=O)c1ccc(Cl)cc1 [Indomethacin, reference compound] |  |  |  |  | 0.5 ± 0.1% | 0.1 ± 0.9% |  |  |  |  |  |  |  |  | 
4 | C/C=C(/C=O)[C@@H](CC=O)CC(=O)OCCc1ccc(O)cc1 [Oleocanthal (−), 2-(4-hydroxyphenyl)ethyl, 4-formyl-3-(2-oxoethyl)-4-hexenoic acid ester] | 24.6 ± 7.3% | 56.1 ± 3.2% | 83.5 ± 3.5% | 21.4 µM | 0% | 0% | 0.4 ± 0.8% | 14.5 ± 2.3% | 56.6 ± 9.5% | 70.9 ± 8.6% | 29.4 µM | 24 out of 40 | ~20 µg/mL | identical to oleocanthal isolated from premium olive oil | 9 of 9
